# Patent US20090181972A1, “Novel Inhibitors of Cysteine Proteases, the Pharmaceutical Compositions Thereof and their Therapeutic Applications” (priority 2005, published 2009)
# How the values were obtained:
# Caspase 3 = biological target: T1, Caspase 3 (Homo sapiens, UniProt P42574); test: Caspase 3 activity assay; type: biochemical; details: 500 nM Ac-DEVD-AMC, 3.2 nM enzyme; pre-incubated 30 minutes at 25° C., 60 minutes at 37° C.; sigmoidal fit
# T1 sequence (P42574 29-175 limits assumed): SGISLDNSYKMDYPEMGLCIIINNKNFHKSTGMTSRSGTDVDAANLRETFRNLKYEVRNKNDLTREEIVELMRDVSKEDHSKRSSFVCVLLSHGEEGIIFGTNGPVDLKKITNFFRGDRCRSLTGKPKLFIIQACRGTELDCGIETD
# T1 sequence (P42574 176-277 limits assumed): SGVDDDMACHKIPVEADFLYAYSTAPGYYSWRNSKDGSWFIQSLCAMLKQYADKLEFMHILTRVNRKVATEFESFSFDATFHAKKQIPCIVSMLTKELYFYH
# Procedure: Caspase 3 was diluted in Caspase 3 buffer (100 mM Hepes pH 7.5; 10% sucrose; 0.1% CHAPS). Compounds stocks (100 mM) were stored at −20° C. in DMSO. Compounds were tested at the following final concentrations: 100 μM; 33.3 μM; 11.1 μM; 3.7 μM; 1.23 μM; 412 nM; 137 nM; 45.7 nM; 15.2 nM; 5 nM. Reactions were performed as duplicates in Black LJL 96 well plates (HE microplates; Molecular Devices; 20 μl final reaction volume). The substrate concentration for caspase 3 specificity assay was 500 nM (Ac-DEVD-AMC; Promega). The concentration of the enzyme (Caspase 3) in specificity assays was 3.2 nM. The concentrations were determined in order to perform specificity assays under initial velocities at fixed substrate concentration. Compounds were pre-incubated with enzymes for 30 minutes at 25° C. Reactions were initiated by addition of substrate to the plates containing the enzymes (+/− compounds) diluted in assay buffer. Reactions were incubated for 60 minutes at 37° C. Reactions were stopped by adding acetic acid (100 mM final). Readings were performed on a Pherastar Fluorescent Reader (BMG). δ Emission 380 nm; δ Excitation=460 nm. Data (mean values +/− standard deviation) were analyzed as % of control (no compound) and plotted as percentage versus the Log of the compound concentration using GraphPad (Prism). Data were fitted to a sigmoidal model (variable slope).
# [1] = system: HCT116 colon cancer cells; test: HCT116 cell viability and proliferation assay (MTS); type: cell-based; details: Homo sapiens, HCT-116, 72 hours incubation, mean of three independent experiments, read-out: HCT116 GI50 D3
# Procedure: HCT116 colon cancer cells were obtained from ATCC (American Type Culture Collection), and maintained in Mc Coy's 5A medium containing 10% FBS, 3 mM glutamine and 1% penicillin/streptomycin. Cells were incubated at 37° C. in a humidified atmosphere containing 5% CO2.
# (§1) Cell viability was assayed using the MTS technique in 96-well culture plates (CellTiter 96® Aqueous Non-Radioactive Cell Proliferation Assay, Promega) according to the manufacturer's instructions. MTS (3-(4,5-dimethyl-thiazol-2-yl)-5-(3-carboxymethoxyphenyl)-2-(4-sulfophenyl)-2H-tetra-zolium) is a MTT-derived tetrazolium that is reduced in metabolically active cells into a soluble, cell-permeant formazan. The amount of formazan, detected by its absorbance at 492 nm is proportional to the number of living, metabolically active cells.
# (§2) 10^3 HCT116 cells were seeded per well. 24 hours later, the medium was changed and the cells treated in triplicate with the following concentrations of each compound: 10 μM-3.33 μM-1.11 μM-370 nM-123 nM-41 nM-14 nM and 5 nM. The compounds were diluted in 100% DMSO, whose final concentration on cells was kept at 0.5%.
# (§3) Cells were incubated with the compounds for 72 hours, and their viability then assayed by the addition of MTS for 2 hours. Absorbance at 492 nm was measured directly from the 96-well culture plates. G150 (Growth Inhibition 50) concentrations for each compound were calculated using a sigmoidal variable slope fit (Prism 4.0, Graphpad Softwares). Values represent mean of three independent experiments.
# [2] = system: PC-3 prostate cancer cells; test: PC3 cell viability and proliferation assay (MTS); type: cell-based; details: Homo sapiens, PC-3, 72 hours incubation, mean of three independent experiments, read-out: PC3 GI50 D3
# Procedure: PC-3 prostate cancer cells were obtained from ATCC, and maintained in F-12K medium containing 7% FBS and 1% penicillin/streptomycin. Cells were incubated at 37° C. in a humidified atmosphere containing 5% CO2.
# as §1, with “(3-(4,5-dimethyl-thiazol-2-yl)-5-(3-carboxymethoxyphenyl)-2-(4-sulfophenyl)-2H-tetrazolium)” for “(3-(4,5-dimethyl-thiazol-2-yl)-5-(3-carboxymethoxyphenyl)-2-(4-sulfophenyl)-2H-tetra-zolium)”
# as §2, with “2×10^3 PC3” for “10^3 HCT116”
# as §3, with “GI50” for “G150”
# SENP1 = biological target: T2, SENP1 (Homo sapiens, UniProt Q9P0U3); test: SENP1 activity assay; type: biochemical; details: MBP-SENP1 1.8 nM, 200 nM SUMO-AMC; pre-incubated 30 minutes at 25° C., 60 minutes at 37° C.; sigmoidal fit
# T2 construct: made in house; host or cells: E. coli BL21
# T2 sequence (Q9P0U3 1-644): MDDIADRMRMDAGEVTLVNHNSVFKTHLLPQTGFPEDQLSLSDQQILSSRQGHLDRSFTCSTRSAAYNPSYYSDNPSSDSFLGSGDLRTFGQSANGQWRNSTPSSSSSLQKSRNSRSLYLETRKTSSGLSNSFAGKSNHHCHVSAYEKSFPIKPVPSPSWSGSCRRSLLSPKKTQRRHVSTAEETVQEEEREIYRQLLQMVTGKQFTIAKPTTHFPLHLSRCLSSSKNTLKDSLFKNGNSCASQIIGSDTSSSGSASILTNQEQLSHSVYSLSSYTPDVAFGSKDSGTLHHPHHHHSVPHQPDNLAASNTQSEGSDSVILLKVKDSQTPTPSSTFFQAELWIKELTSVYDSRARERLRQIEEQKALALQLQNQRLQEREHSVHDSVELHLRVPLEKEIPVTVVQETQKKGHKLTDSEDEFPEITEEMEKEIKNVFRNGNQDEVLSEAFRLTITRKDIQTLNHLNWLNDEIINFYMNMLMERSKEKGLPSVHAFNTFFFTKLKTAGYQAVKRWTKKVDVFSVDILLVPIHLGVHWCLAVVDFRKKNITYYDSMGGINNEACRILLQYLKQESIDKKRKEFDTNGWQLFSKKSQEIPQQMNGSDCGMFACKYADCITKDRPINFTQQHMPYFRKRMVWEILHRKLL
# Procedure: The cDNA encoding SENP1 was obtained by PCR amplification from placenta mRNA. SENP1 cDNA was subcloned by PCR into a bacterial expression vector (pMAL-C2X; New England BioLabs, Inc). The sequence was ascertained by sequencing of the entire open reading frame. pMAL-C2-SENP1 was transformed into BL21 cells and grown in LB-ampicillin medium supplemented with glucose (2 g.l^−1). Fusion protein expression was induced by IPTG (0.5 mM). Bacterial cell lysates were harvested and lyzed in lysis buffer (Tris HCl 20 mM pH 7.4; 1 mM EDTA; 200 mM NaCl; 0.5% Triton X-100; 10 % glycerol; Protease Inhibitor Cocktail) followed by sonication. Proteins were affinity purified on amylose affinity resin (New England BioLabs, Inc). Bound materials were extensively washed in wash buffer (20 mM Tris HCl pH 7.4; 200 mM NaCl; 1 mM EDTA; 0.5% Triton X-100; 10% glycerol) and eluted from the resin in 10 mM maltose-containing wash buffer. Proteins were dialyzed in dialysis buffer (Tris HCl pH 7.6 20 mM; NaCl 200 mM; DTT 1 mM; EDTA 1 mM; 10% Glycerol). Proteins purifications were analyzed on 4-12% NuPAGE (Invitrogen).
# MBP-SENP1 was diluted in SENP1 buffer (50 mM Tris HCl; 0.5 mM EDTA; 5 mM DTT; 0.01 % Triton X-100; Bovine Serum Albumin 0.05 mg.ml^−1 pH 7.6). Compounds stocks (100 mM) were stored at −20° C. in DMSO. Compounds were tested at the following final concentrations: 100 μM; 33.3 μM; 11.1 μM; 3.7 μM; 1.23 μM; 412 nM; 137 nM; 45.7 nM; 15.2 nM; 5 nM.
# Reactions were performed as duplicates in Black LJL 96 well plates (HE microplates; Molecular Devices; 20 μl final reaction volume). The substrate concentration for SENP1 was 200 nM SUMO-AMC (Chem. Biol., 2003, 10, p. 837-846) (Boston Biochem). The concentration of the enzyme (SENP1) in specificity assays was 1.8 nM. The concentrations were determined in order to perform specificity assays under initial velocities at fixed substrate concentration. Compounds were pre-incubated with enzymes for 30 minutes at 25° C. Reactions were initiated by addition of substrate to the plates containing the enzymes (+/− compounds) diluted in assay buffer. Reactions were incubated for 60 minutes at 37° C. Reactions were stopped by adding acetic acid (100 mM final). Readings were performed on a Pherastar Fluorescent Reader (BMG). λ Emission 380 nm; λ Excitation=460 nm. Data (mean values +/− standard deviation) were analyzed as % of control (no compound) and plotted as percentage versus the Log of the compound concentration using GraphPad (Prism). Data were fitted to a sigmoidal model (variable slope).
IC50 (Caspase 3),GI50 [1],GI50 [2],IC50 (SENP1),SMILES
212 nM,981 nM,3170 nM,,"Nc1nnc2nc3c(nn12)-c1ccccc1C3=O [Example 1c/B, 3-Amino-1,2,3a,4,10-pentaaza-cyclopenta[b]fluoren-9-one]"
,2050 nM,4000 nM,> 100000 nM,"O=C1c2ccccc2-c2nc3nnc(CO)n3nc21 [Example 1h/A, 1-Hydroxymethyl-2,3,4,10,10a-pentaaza-cyclopenta[b]fluoren-9-one]"
,1300 nM,7090 nM,> 100000 nM,"Cc1nnc2nc3c(nn12)C(=O)c1ccccc1-3 [Example 1b/A, 1-Methyl-2,3,4,10,10a-pentaaza-cyclopenta[b]fluoren-9-one]"
